The results in this text go back to patent publication US10006030B2, “RNA interference compositions targeting heat shock protein 90 and methods of use thereof” (SILENSEED LTD., priority 2014, dated 2018).

One series has as its system Androgen receptor. Briefly: AR-dependent luciferase reporter assay in transfected LNCaP cells. Type of series: cell-based. As to conditions: co-transfection, 24 hours post-transfection, vs mock, p<0.05, FIG. 2. As for the experimental part: HPS90 is known to be a chaperone of AR (androgen receptor), and is necessary for correct AR post-translational processing. To further test RNAi targeting of HSP90, an AR-dependent luciferase reporter construct was used (FIG. 2). LNCaP cells were cultured as above, and were seeded onto a 48-well culture plate. After an overnight incubation, plated cells were co-transfected using Lipofectamine® 2000 transfection reagent (Life Technologies) based on manufacturer's protocol for DNA-RNA transfections with an AR-luciferase reporter plasmid (Qiagen, CCS-1019L), and siRNA targeting HSP90 (HSP1-1 (sense strand SEQ ID NO: 4, anti-sense strand SEQ ID NO: 8); AR (siAR-1), or a non-target scrambled siRNA (si-scr). Cells transfected only with the AR-luciferase reported plasmid served as the negative control (mock). 24 hours post-transfection, cells were lysed and luciferase activity determined with the Promega luciferase detection kit.

The test system of another series is LNCaP cells. Briefly: methylene blue (MB) cell viability assay after siRNA transfection. In kind it is cell-based. Conditions: Lipofectamine 2000 transfection, 72 hours incubation, FIG. 1. As for the experimental part:
Prostate cancer cell line LNCaP (ATCC # CRL-1740) was grown in Roswell Park Memorial Institute medium (RPMI) supplemented with 10% fetal bovine serum (FBS) and 100 units/ml penicillin/streptomycin, according to the ATCC protocol. Cells were seeded into 96-well culture plates and incubated overnight before transfection with siRNAs targeting HSP90 sequences.
Cells were transfected using Lipofectamine® 2000 transfection reagent (Life Technologies) based on manufacturer's protocol, with siRNA targeting HSP90: HSP1-1 (sense strand SEQ ID NO: 4, anti-sense strand SEQ ID NO: 8), HSP1-2 (sense strand SEQ ID NO: 5, anti-sense strand SEQ ID NO: 9), and HSP1-3 (sense strand SEQ ID NO: 6, anti-sense strand SEQ ID NO: 10). Cells were also treated with HSP90 inhibitor NVP-AUY922 (or AUY922), a resorcinylicisoxazole amide was used at 5 nM and 10 nM (with similar effect), or left untreated. After 72 hours incubation, cellular viability was determined by standard methylene blue (MB) assay, and quantitated as percentage of viable cells in relation to the untreated sample (FIG. 1).

d = 2'-deoxy (DNA); r = 2'-OH (RNA)

For the substance “HSP1-1: siRNA targeting HSP90, sense strand SEQ ID NO: 4, anti-sense strand SEQ ID NO: 8 (sense 5'-AAG ACC AAC CGA UGG AGGAdTdT-3'; antisense 5'-UCC UCC AUC GGU UGG UCUUdTdT-3; as printed in the source, key not given here)”, in the series with Androgen receptor, the “luciferase activity of AR-luciferase reporter plasmid” value was “significantly decreased”. The “cellular viability (percentage of viable cells in relation to the untreated sample)” value with LNCaP cells is on record as “statistically significant decrease”.
As to “HSP1-2: siRNA targeting HSP90, sense strand SEQ ID NO: 5, anti-sense strand SEQ ID NO: 9 (sense AAGAGCUGCAUAUUAACCUTT; antisense AGGUUAAUAUGCAGCUCUUTT; sugars from the 5' end r19 d2, backbone not given here)”, the “cellular viability (percentage of viable cells in relation to the untreated sample)” value in the series with LNCaP cells was “statistically significant decrease”.
The same measure, in the same setting: the entry for “HSP1-3: siRNA targeting HSP90, sense strand SEQ ID NO: 6, anti-sense strand SEQ ID NO: 10 (sense AAGUCUGGGACCAAAGCGUTT; antisense ACGCUUUGGUCCCAGACUUTT; sugars from the 5' end r19 d2, backbone not given here)” is “statistically significant decrease”.
